We go through 9 compounds from ChEMBL document CHEMBL1153674, “Synthesis and incorporation of 2-amino acid conjugated nucleotides into ribozymes” (Bioorg Med Chem Lett, 1995).

The data set in a line: Half-life was determined. In kind it is ADME. The note with it: human.

By half-life is commonly meant the time in which the quantity being followed falls by half. Higher therefore signals slow decline. The compound `N[C@@H]1[C@H](O)[C@@H](CO)O[C@H]1n1ccc(=O)[nH]c1=O` displayed a half-life of 1.5 min. To `COc1ccc(C(OCC2OC(n3ccc(=O)[nH]c3=O)C(NC(=O)[C@@H](C)NC(=O)OCC3c4ccccc4-c4ccccc43)C2O)(c2ccccc2)c2ccc(OC)cc2)cc1` (some centres undefined) belongs 13 min; to `O=C(NCCCC[C@@H](NC(=O)OCC1c2ccccc2-c2ccccc21)C(=O)NC1C(O)C(CO)OC1n1ccc(=O)[nH]c1=O)OCC1c2ccccc2-c2ccccc21` (some centres undefined), 1 min; to `O=C(N[C@@H](C(=O)NC1C(O)C(CO)OC1n1ccc(=O)[nH]c1=O)c1ccccc1)OCC1c2ccccc2-c2ccccc21` (some centres undefined), 2 min. As for `COc1ccc(C(OCC2OC(n3ccc(=O)[nH]c3=O)C(NC(=O)[C@@H](CC(=O)OCc3ccccc3)NC(=O)OCC3c4ccccc4-c4ccccc43)C2O)(c2ccccc2)c2ccc(OC)cc2)cc1` (some centres undefined), the figure is 8 min. As for `COc1ccc(C(OCC2OC(n3ccc(=O)[nH]c3=O)C(NC(=O)[C@@H](CCCCNC(=O)OCC3c4ccccc4-c4ccccc43)NC(=O)OCC3c4ccccc4-c4ccccc43)C2O)(c2ccccc2)c2ccc(OC)cc2)cc1` (some centres undefined), the figure is 11.5 min. Turning to `COc1ccc(C(OCC2OC(n3ccc(=O)[nH]c3=O)C(NC(=O)[C@H](NC(=O)OCC3c4ccccc4-c4ccccc43)c3ccccc3)C2O)(c2ccccc2)c2ccc(OC)cc2)cc1` (some centres undefined), the half-life is 3 min.

As for `O=C(C[C@@H](NC(=O)OCC1c2ccccc2-c2ccccc21)C(=O)NC1C(O)C(CO)OC1n1ccc(=O)[nH]c1=O)OCc1ccccc1` (some centres undefined), the half-life was determined as 1 min. As for `C[C@@H](NC(=O)OCC1c2ccccc2-c2ccccc21)C(=O)NC1C(O)C(CO)OC1n1ccc(=O)[nH]c1=O` (some centres undefined), the figure is 1.5 min.
